In patent publication US20250170090A1, “METHOD FOR PREVENTING OR TREATING DISEASE OR DISORDER ASSOCIATED WITH ANTINEOPLASTIC AGENT” (ONQUALITY PHARMACEUTICALS CHINA LTD., priority 2022, published 2025):

How the values were obtained:
[1] = system: human oral keratinocytes (HOK); assay: CCK-8 cell viability: alleviation of proliferative toxicity of anti-tumor agents on HOK (Table 8-2); assay type: cell-based; conditions: NO-NSAID 100 μM
Procedure: (§1) Experiments were conducted using various epithelial cells: Examples 47-51 used human immortalized keratinocytes (HaCaT) with corresponding results in Table 8-1; Examples 52-56 used human oral keratinocytes (HOK) with results in Table 8-2; Examples 57-61 used gastric epithelial cells (GES-1) with results in Table 8-3; Examples 62-66 used human intestinal epithelial cells (FHs 74 Int) with results in Table 8-4.
(§2) The cultured cells were digested the suspended, counted, and seed into a 96-well plate with 5,000-10,000 cells per well. The wells are divided into the following groups: blank control group, anti-tumor agent group, anti-tumor agent+NO-NSAID group, anti-tumor agent solvent group, NO-NSAID solvent control group. Wherein each well of each group contained a basic medium, and the final liquid volume contained in each well was about 100 μL. The grouping situation was as follows: • 1) Blank control group: no solution was added except normally replacing the medium; • 2) Anti-tumor agent group: added the anti-tumor agent solution (the final concentration was shown in Table 8-1 to Table 8-4, the solvent of the anti-tumor agent solution was DMSO); • 3) Anti-tumor agent+NO-NSAID group: added the anti-tumor agent solution and the NO-NSAID solution (the final concentrations of anti-tumor agent and NO-NSAID were shown in Table 8-1 to Table 8-4, and according to the solubility of NO-NSAID, the solvent of NO-NSAID solution was selected as ethanol or sterile water, and minor volume differences in each group were adjusted by added the corresponding solvent); • 4) Anti-tumor agent solvent group: an equal volume of DMSO as contained in the corresponding anti-tumor agent solution in Group 2) was added; • 5) NO-NSAID control group: the same volume and type of solvent (for example, ethanol or sterile water) corresponding to the NO-NSAID contained in group 3) was added.
(§3) The anti-tumor agent solvent group was not involved in data processing and was only used as a reference for evaluating experimental system error. The NO-NSAID solvent control group was used for data correction to eliminate the influence of the solvent on the results.
(§4) After culturing for 24-48 hours, the Cell Counting Kit-8 (CCK-8) detection kit (C0037, Shanghai Beyotime Biotechnology Co., Ltd., Beyotime Biotechnology) was used to determine the cell viability. This allows for the calculation of the proliferative toxicity of anti-tumor agent on cell and the mitigating effect of NO-NSAID on proliferative toxicity. The results were statistically analyzed and plotted using GraphPad Prism 6.0 software and t test.

[2] = system: human immortalized keratinocytes (HaCaT); assay: CCK-8 cell viability: alleviation of proliferative toxicity of anti-tumor agents on HaCaT (Table 8-1); assay type: cell-based; conditions: NO-NSAID 100 μM, percentage increase in viable cells vs anti-tumor agent alone
Procedure: as §1, §2, §3, §4

[3] = system: chemotherapy-induced hand-foot syndrome; assay: Prevention of chemotherapy-induced hand-foot syndrome in rat models (Table 5); assay type: in vivo, SD rats; conditions: Capecitabine 4000 mg/kg once a day, Days 40
Procedure: Rat animal model was constructed. After several days, the rats develop hand-foot syndrome in their paws. After one week of acclimatization (about 200 g), the SD rats are divided into groups of 10 rats each, followed by gavage administration experiment. The chemotherapy drugs were dissolved, and each rat was given a gavage dose of 1 mL/100 g. After gavage, the rats were fixed with a fixed cylinder. NO-NSAID ointment was applied to the paws of the rats in the medication group, and blank ointment was applied to the paws of the rats in the blank group (as blank control). […] Table 5 lists the animal experimental combinations of chemotherapy drugs and NO-NSAID ointment, as well as the corresponding experimental results (where the value in the control rate column=the incidence rate of hand-foot syndrome in the blank group−the incidence rate of hand-foot syndrome in the treatment group).

[4] = system: human intestinal epithelial cells (FHs 74 Int); assay: CCK-8 cell viability: alleviation of proliferative toxicity of anti-tumor agents on FHs 74 Int (Table 8-4); assay type: cell-based; conditions: NO-NSAID 100 μM
Procedure: as §1, §2, §3, §4

[5] = system: gastric epithelial cells (GES-1); assay: CCK-8 cell viability: alleviation of proliferative toxicity of anti-tumor agents on GES-1 (Table 8-3); assay type: cell-based, human; conditions: NO-NSAID 100 μM
Procedure: as §1, §2, §3, §4

[6] = system: hand-foot syndrome caused by anti-tumor agents; assay: Treatment of established hand-foot syndrome caused by anti-tumor agents in rats (Table 4); assay type: in vivo; conditions: Days 7
Procedure: After the rats (about 200 g) were fed and adapted for one week, the rats were divided into groups of 10 rats for gavage administration experiment. The anti-tumor agent was dissolved in a mixed solution of Cremophor EL:ethanol=1:1, and diluted with PBS to the required concentration (diluted about 3 times with PBS solution) before gavage. […] Specific experimental procedures followed those outlined in the prevention experiment. […] Table 4 lists the animal experiments using various anti-tumor agents and NO-NSAID ointment, as well as the corresponding experimental results (where the value in the control rate column=the incidence rate of hand-foot syndrome in the blank group−the incidence rate of hand-foot syndrome in the treatment group).

CC(=O)Oc1ccccc1C(=O)OCOC(=O)CCCCCO[N+](=O)[O-] [Compound A3]
Response rate % (average) ([1]; Afatinib (10 μM)): 27%
Response rate % (average) ([1]; Cabozantinib (5 μM)): 8%
Response rate % (average) ([1]; Dabrafenib (10 μM)): 4%
Response rate % (average) ([1]; Everolimus (5 μM)): −8%
Response rate % (average) ([1]; Infigratinib (15 μM)): 7%
Response rate % (average) ([1]; Lapatinib (5 μM)): −4%
Response rate % (average) ([1]; Lenvatinib (10 μM)): 18%
Response rate % (average) ([1]; Olmutinib (10 μM)): 35%
Response rate % (average) ([1]; Regorafenib (5 μM)): 12%
Response rate % (average) ([1]; Selumetinib (5 μM)): 16%
Response rate % (average) ([1]; Sorafenib (5 μM)): 30%
Response rate % (average) ([1]; Sunitinib (5 μM)): 14%
Response rate % (average) ([2]; Afatinib (10 μM)): 24%
Response rate % (average) ([2]; Cabozantinib (5 μM)): 24%
Response rate % (average) ([2]; Dabrafenib (10 μM)): 3%
Response rate % (average) ([2]; Everolimus (5 μM)): −10%
Response rate % (average) ([2]; Infigratinib (15 μM)): 1%
Response rate % (average) ([2]; Lapatinib (5 μM)): 22%
Response rate % (average) ([2]; Lenvatinib (10 μM)): 0%
Response rate % (average) ([2]; Olmutinib (10 μM)): 37%
Response rate % (average) ([2]; Regorafenib (5 μM)): 33%
Response rate % (average) ([2]; Selumetinib (5 μM)): 20%
Response rate % (average) ([2]; Sorafenib (5 μM)): 33%
Response rate % (average) ([2]; Sunitinib (5 μM)): 19%
Control rate ([3]; ointment 1% wt): 28.57%
Control rate ([3]; ointment 3% wt): 37.50%
Response rate % (average) ([4]; Afatinib (10 μM)): 26%
Response rate % (average) ([4]; Cabozantinib (5 μM)): 13%
Response rate % (average) ([4]; Dabrafenib (10 μM)): −8%
Response rate % (average) ([4]; Everolimus (5 μM)): 14%
Response rate % (average) ([4]; Infigratinib (15 μM)): 6%
Response rate % (average) ([4]; Lapatinib (5 μM)): 23%
Response rate % (average) ([4]; Lenvatinib (10 μM)): 25%
Response rate % (average) ([4]; Olmutinib (10 μM)): 29%
Response rate % (average) ([4]; Regorafenib (5 μM)): 29%
Response rate % (average) ([4]; Selumetinib (5 μM)): 29%
Response rate % (average) ([4]; Sorafenib (5 μM)): 26%
Response rate % (average) ([4]; Sunitinib (5 μM)): 25%
Response rate % (average) ([5]; Afatinib (10 μM)): 7%
Response rate % (average) ([5]; Cabozantinib (5 μM)): 14%
Response rate % (average) ([5]; Dabrafenib (10 μM)): 7%
Response rate % (average) ([5]; Everolimus (5 μM)): 19%
Response rate % (average) ([5]; Infigratinib (15 μM)): 28%
Response rate % (average) ([5]; Lapatinib (5 μM)): 20%
Response rate % (average) ([5]; Lenvatinib (10 μM)): 22%
Response rate % (average) ([5]; Olmutinib (10 μM)): 33%
Response rate % (average) ([5]; Regorafenib (5 μM)): 26%
Response rate % (average) ([5]; Selumetinib (5 μM)): 19%
Response rate % (average) ([5]; Sorafenib (5 μM)): 24%
Response rate % (average) ([5]; Sunitinib (5 μM)): 4%
Response rate ([6]; Regorafenib 90 mg/kg once every two days, ointment 1% wt): 33.33%
Response rate ([6]; Sorafenib 80 mg/kg once every two days, ointment 3% wt): 42.86%
